{"source": "ChEMBL document CHEMBL4630907", "about": "(2021)", "key": {"[1]": {"target": "T1, Bromodomain-containing protein 2 (Homo sapiens, UniProt P25440)", "T1 sequence (P25440 whole entry)": "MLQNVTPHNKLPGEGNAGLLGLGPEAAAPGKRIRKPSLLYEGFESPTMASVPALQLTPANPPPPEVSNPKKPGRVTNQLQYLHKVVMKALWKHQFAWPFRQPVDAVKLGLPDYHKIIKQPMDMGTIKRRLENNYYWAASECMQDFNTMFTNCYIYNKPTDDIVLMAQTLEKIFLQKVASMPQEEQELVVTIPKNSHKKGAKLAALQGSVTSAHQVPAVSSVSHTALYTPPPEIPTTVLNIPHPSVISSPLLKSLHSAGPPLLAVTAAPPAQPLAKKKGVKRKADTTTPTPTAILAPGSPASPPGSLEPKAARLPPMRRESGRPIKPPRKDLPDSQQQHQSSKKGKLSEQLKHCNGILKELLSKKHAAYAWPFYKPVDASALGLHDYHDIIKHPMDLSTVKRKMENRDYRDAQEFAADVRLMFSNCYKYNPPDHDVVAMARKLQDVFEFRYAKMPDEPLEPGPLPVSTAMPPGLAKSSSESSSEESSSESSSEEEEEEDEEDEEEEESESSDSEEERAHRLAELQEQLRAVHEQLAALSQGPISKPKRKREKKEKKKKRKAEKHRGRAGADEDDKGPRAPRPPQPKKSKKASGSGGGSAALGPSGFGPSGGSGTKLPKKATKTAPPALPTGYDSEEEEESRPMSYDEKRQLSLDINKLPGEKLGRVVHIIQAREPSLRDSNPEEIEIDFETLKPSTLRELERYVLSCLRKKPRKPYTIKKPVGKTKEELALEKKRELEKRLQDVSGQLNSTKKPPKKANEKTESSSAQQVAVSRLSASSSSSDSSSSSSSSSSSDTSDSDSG", "assay": "BRD2(2) DiscoverX BROMOscan"}, "[2]": {"target": "T2, Beta-2 adrenergic receptor (Homo sapiens, UniProt P07550)", "conditions": "Compound concentration 10.0 uM"}, "[3]": {"target": "T3, 5-hydroxytryptamine receptor 1B (Homo sapiens, UniProt P28222)", "T3 sequence (P28222 whole entry)": "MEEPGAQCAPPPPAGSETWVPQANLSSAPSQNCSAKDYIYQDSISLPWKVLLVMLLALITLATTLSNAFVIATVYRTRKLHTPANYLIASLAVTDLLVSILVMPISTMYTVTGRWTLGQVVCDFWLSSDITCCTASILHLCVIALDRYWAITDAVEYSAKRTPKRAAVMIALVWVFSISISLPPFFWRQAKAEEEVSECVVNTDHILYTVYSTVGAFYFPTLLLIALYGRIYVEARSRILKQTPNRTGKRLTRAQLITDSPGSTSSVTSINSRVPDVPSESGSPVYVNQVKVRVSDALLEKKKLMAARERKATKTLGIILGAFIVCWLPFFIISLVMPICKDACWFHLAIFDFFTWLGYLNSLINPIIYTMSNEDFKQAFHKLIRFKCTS", "conditions": "Compound concentration 10.0 uM"}, "[4]": {"target": "Sodium-dependent noradrenaline transporter (Homo sapiens, UniProt P23975)", "assay": "(§1) Cross screening panel"}, "Vasopressin V1a receptor": {"target": "Vasopressin V1a receptor (Homo sapiens, UniProt P37288)", "assay": "as §1"}, "[5]": {"target": "Alpha-2C adrenergic receptor (Homo sapiens, UniProt P18825)", "assay": "as §1"}, "[6]": {"target": "Kappa-type opioid receptor (Homo sapiens, UniProt P41145)", "sequence (P41145 whole entry)": "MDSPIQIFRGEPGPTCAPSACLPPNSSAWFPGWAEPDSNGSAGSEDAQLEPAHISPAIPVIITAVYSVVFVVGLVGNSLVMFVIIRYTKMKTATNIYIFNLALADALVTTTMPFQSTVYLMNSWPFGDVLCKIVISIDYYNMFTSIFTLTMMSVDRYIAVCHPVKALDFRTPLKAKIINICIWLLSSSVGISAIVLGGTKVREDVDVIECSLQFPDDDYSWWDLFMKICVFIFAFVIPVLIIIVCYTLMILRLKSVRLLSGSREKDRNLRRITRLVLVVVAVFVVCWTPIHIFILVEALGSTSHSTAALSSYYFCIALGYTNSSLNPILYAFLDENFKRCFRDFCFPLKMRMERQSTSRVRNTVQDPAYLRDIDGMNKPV", "assay": "as §1"}, "[7]": {"target": "Muscarinic acetylcholine receptor M2 (Homo sapiens, UniProt P08172)", "sequence (P08172 whole entry)": "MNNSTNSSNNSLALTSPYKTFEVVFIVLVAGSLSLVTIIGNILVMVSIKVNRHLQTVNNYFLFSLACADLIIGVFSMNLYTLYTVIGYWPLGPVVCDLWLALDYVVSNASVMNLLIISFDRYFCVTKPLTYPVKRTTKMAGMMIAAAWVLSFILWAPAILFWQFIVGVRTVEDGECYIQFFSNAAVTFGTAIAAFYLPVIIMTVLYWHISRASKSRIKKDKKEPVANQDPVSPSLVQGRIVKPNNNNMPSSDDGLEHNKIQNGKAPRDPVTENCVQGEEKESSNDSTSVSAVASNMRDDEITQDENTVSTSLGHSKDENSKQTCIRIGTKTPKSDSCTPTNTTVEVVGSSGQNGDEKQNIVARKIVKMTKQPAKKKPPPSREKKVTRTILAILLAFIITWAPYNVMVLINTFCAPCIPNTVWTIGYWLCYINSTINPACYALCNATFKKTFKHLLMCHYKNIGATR", "assay": "as §1"}, "[8]": {"target": "Glutamate receptor ionotropic, NMDA 2B (Homo sapiens, UniProt Q13224)", "assay": "as §1"}, "[9]": {"target": "Voltage-gated inwardly rectifying potassium channel KCNH2 (Homo sapiens, UniProt Q12809)", "assay": "as §1"}, "[10]": {"target": "Amine oxidase [flavin-containing] B (Homo sapiens, UniProt P27338)", "assay": "as §1"}, "Substance-P receptor": {"target": "Substance-P receptor (Homo sapiens, UniProt P25103)", "assay": "as §1"}, "[11]": {"target": "cGMP-inhibited 3',5'-cyclic phosphodiesterase 3A (Homo sapiens, UniProt Q14432)", "assay": "as §1"}, "[12]": {"target": "Alpha-1B adrenergic receptor (Homo sapiens, UniProt P35368)", "assay": "as §1"}, "[13]": {"target": "Voltage-dependent L-type calcium channel subunit alpha-1C (Homo sapiens, UniProt Q13936)", "assay": "as §1"}, "[14]": {"target": "Muscarinic acetylcholine receptor M1 (Homo sapiens, UniProt P11229)", "sequence (P11229 whole entry)": "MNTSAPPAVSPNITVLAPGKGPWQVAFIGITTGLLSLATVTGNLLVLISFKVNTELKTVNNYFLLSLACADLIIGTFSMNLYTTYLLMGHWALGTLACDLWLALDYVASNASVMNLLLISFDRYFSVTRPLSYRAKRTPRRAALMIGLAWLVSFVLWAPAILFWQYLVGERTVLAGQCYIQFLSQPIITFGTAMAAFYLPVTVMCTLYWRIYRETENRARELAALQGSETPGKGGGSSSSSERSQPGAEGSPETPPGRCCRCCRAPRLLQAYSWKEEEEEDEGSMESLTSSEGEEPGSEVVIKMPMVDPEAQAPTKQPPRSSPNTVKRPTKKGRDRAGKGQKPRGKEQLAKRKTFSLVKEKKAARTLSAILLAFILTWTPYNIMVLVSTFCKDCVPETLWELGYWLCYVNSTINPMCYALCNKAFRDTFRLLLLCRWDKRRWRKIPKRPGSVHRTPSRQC", "assay": "as §1"}, "[15]": {"target": "3',5'-cyclic-AMP phosphodiesterase 4B (Homo sapiens, UniProt Q07343)", "assay": "as §1"}, "[16]": {"target": "T2, Beta-2 adrenergic receptor", "assay": "as §1"}, "[17]": {"target": "Nuclear receptor subfamily 1 group I member 2 (Homo sapiens, UniProt O75469)", "assay": "as §1"}, "[18]": {"target": "Prostaglandin G/H synthase 2 (Homo sapiens, UniProt P35354)", "assay": "as §1"}, "[19]": {"target": "Sodium-dependent serotonin transporter (Homo sapiens, UniProt P31645)", "sequence (P31645 whole entry)": "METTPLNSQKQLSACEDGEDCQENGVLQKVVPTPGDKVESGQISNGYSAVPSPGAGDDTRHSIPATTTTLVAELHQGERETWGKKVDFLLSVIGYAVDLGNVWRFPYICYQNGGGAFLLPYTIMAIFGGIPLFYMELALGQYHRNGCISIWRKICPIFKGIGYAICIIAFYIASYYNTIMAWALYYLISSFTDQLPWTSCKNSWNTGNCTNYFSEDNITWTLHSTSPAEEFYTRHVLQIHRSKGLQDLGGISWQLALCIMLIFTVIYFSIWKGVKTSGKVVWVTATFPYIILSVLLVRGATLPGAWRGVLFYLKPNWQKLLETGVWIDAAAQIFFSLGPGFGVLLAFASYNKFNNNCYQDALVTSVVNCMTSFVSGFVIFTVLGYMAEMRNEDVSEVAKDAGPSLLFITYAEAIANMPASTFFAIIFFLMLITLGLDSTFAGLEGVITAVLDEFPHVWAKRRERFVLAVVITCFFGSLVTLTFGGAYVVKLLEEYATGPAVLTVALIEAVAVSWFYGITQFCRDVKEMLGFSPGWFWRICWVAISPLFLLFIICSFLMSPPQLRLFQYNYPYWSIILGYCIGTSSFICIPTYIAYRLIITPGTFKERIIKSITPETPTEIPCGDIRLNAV", "assay": "as §1"}, "[20]": {"target": "T3, 5-hydroxytryptamine receptor 1B", "assay": "as §1"}, "[21]": {"target": "Phosphatidylinositol 4,5-bisphosphate 3-kinase catalytic subunit gamma isoform (Homo sapiens, UniProt P48736)", "sequence (P48736 whole entry, canonical isoform)": "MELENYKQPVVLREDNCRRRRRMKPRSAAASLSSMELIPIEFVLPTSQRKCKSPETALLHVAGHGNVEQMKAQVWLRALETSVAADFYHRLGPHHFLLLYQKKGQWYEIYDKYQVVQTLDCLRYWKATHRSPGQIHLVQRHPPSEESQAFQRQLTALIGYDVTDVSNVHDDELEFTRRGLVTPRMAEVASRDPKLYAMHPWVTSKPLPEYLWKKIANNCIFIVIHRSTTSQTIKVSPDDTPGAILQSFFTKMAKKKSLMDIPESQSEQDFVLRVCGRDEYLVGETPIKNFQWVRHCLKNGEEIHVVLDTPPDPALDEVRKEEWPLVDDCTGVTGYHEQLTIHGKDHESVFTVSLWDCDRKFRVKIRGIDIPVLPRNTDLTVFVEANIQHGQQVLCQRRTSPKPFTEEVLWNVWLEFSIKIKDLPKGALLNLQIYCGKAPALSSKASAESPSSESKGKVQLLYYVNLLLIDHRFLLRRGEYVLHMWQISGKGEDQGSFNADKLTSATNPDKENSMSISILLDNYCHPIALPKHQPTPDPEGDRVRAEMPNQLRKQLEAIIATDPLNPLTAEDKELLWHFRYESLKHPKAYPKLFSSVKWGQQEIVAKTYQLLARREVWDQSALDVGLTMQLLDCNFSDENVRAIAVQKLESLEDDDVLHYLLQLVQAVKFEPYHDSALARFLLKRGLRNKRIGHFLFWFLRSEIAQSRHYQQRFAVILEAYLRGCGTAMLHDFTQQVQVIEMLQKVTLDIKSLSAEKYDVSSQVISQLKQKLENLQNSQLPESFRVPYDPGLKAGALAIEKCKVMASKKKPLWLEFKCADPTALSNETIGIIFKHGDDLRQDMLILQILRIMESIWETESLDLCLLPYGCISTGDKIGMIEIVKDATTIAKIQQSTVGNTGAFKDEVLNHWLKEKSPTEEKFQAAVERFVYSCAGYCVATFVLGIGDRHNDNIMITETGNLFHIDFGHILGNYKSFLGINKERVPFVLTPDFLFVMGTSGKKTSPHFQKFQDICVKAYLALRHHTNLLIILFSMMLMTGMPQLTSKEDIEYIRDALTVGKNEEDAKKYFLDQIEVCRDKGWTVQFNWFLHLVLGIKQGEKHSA", "assay": "as §1"}, "[22]": {"target": "Tyrosine-protein kinase Lck (Homo sapiens, UniProt P06239)", "assay": "as §1"}, "[23]": {"target": "T4, Bromodomain-containing protein 3 (Homo sapiens, UniProt Q15059)", "assay": "BET mutant TR-FRETassay (BRD3 BD1)"}, "[24]": {"target": "GABA-A receptor; anion channel (Rattus norvegicus) (UniProt O09028+P15431+P18506+P18508+P19969+P20236+P23574+P23576+P28471+P28473+P30191+P62813+P63079+P63138+Q91ZM7+Q9ES14)", "conditions": "Compound concentration 10.0 uM"}, "[25]": {"target": "Bromodomain-containing protein 9 (Homo sapiens, UniProt Q9H8M2)", "assay": "BRD9 DiscoverX BROMOscan"}, "[26]": {"target": "SWI/SNF-related matrix-associated actin-dependent regulator of chromatin subfamily A member 2 (Homo sapiens, UniProt P51531)", "assay": "SMARCA2 DiscoverX BROMOscan"}, "[27]": {"target": "T4, Bromodomain-containing protein 3", "assay": "BRD3 Bromoscan (DiscoverX)"}, "D(2) dopamine receptor": {"target": "D(2) dopamine receptor (Homo sapiens, UniProt P14416)", "conditions": "Compound concentration 10.0 uM"}, "[28]": {"target": "Bromodomain adjacent to zinc finger domain protein 2B (Homo sapiens, UniProt Q9UIF8)", "assay": "BAZ2B DiscoverX BROMOscan"}, "[29]": {"target": "ATPase family AAA domain-containing protein 2B (Homo sapiens, UniProt Q9ULI0)", "assay": "ATAD2B DiscoverX BROMOscan"}, "[30]": {"target": "T4, Bromodomain-containing protein 3", "assay": "BRD3(1) DiscoverX BROMOscan"}, "[31]": {"target": "T1, Bromodomain-containing protein 2", "assay": "BRD2(1) DiscoverX BROMOscan"}, "[32]": {"target": "Alpha-2A adrenergic receptor (Homo sapiens) (UniProt P08913)", "conditions": "Compound concentration 10.0 uM"}, "[33]": {"target": "Transcription intermediary factor 1-alpha (Homo sapiens, UniProt O15164)", "assay": "TRIM24(BROMO.) DiscoverX BROMOscan"}, "[34]": {"target": "5-hydroxytryptamine receptor 1A (Homo sapiens) (UniProt P08908)", "conditions": "Compound concentration 10.0 uM"}, "[35]": {"target": "Bromodomain adjacent to zinc finger domain protein 2A (Homo sapiens, UniProt Q9UIF9)", "assay": "BAZ2A DiscoverX BROMOscan"}, "[36]": {"target": "Histamine H2 receptor (Homo sapiens) (UniProt P25021)", "sequence (P25021 whole entry)": "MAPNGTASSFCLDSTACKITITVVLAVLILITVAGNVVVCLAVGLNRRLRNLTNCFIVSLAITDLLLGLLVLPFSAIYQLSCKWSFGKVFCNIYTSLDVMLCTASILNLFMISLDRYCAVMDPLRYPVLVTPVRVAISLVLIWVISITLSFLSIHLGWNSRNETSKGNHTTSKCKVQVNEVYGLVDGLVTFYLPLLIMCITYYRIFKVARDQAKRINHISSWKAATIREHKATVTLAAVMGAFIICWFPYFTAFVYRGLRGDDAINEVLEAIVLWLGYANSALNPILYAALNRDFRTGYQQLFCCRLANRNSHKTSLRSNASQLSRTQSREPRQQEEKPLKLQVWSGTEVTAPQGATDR", "conditions": "Compound concentration 10.0 uM"}, "[37]": {"target": "Bromodomain and WD repeat-containing protein 1 (Homo sapiens, UniProt Q9NSI6)", "assay": "WDR9(2) DiscoverX BROMOscan"}, "[38]": {"target": "D(4) dopamine receptor (Homo sapiens) (UniProt P21917)", "conditions": "Compound concentration 10.0 uM"}, "[39]": {"assay": "as §1"}, "[40]": {"target": "D(1B) dopamine receptor (Homo sapiens) (UniProt P21918)", "conditions": "Compound concentration 10.0 uM"}, "CREB-binding protein": {"target": "CREB-binding protein (Homo sapiens, UniProt Q92793)", "assay": "CREBBP DiscoverX BROMOscan"}, "D(4) dopamine receptor": {"target": "D(4) dopamine receptor (Homo sapiens, UniProt P21917)", "sequence (P21917 whole entry)": "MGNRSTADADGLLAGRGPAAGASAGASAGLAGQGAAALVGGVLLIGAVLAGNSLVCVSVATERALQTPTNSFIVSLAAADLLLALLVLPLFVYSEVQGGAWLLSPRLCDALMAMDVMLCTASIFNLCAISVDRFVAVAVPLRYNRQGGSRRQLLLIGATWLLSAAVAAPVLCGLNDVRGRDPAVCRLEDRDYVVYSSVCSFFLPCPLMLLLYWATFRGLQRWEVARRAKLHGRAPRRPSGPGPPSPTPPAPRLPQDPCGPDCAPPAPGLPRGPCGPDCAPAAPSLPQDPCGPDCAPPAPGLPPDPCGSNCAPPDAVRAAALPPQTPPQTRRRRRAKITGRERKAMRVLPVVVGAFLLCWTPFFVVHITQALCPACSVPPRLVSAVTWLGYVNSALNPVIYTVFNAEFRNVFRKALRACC", "assay": "GPCRScan assay: inhibition of D4", "set-up": "radioligand conc. used [nm] 0.6 – 1.7, parental cells Stable HEK"}, "[41]": {"target": "T5, 5-hydroxytryptamine receptor 3A (Homo sapiens, UniProt P46098)", "T5 sequence (P46098 whole entry)": "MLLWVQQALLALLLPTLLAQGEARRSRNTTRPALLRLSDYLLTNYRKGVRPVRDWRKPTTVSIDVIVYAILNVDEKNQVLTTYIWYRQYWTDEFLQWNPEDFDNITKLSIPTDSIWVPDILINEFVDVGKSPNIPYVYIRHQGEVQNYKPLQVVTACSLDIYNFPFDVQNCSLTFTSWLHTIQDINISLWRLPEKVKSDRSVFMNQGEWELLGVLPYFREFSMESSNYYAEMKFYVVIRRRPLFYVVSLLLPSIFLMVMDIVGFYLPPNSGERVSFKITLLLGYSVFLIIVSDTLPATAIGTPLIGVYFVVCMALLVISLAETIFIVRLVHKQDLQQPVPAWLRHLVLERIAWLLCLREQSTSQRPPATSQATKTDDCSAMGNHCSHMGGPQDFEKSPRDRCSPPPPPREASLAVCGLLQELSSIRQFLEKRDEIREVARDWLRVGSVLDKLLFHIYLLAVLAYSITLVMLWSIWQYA", "assay": "GPCRScan assay: inhibition of 5-HT3", "set-up": "radioligand conc. used [nm] 1.0 – 2.0, parental cells HEKT"}}, "note": "Calls of active or inactive are those of the source. No cut-off for these calls is given here."}
{"smiles": "COCc1nc2cnc3cc(-c4c(C)noc4C)c(OC[C@H]4CCNC4)cc3c2n1[C@H](C)c1ccccc1", "note": "[GSK778]", "values": [{"measurement": "Kd", "setting": "[1]", "value": 0.84, "unit": "µM"}, {"measurement": "inhibition", "setting": "[2]", "value": 18.4, "unit": "%"}, {"measurement": "inhibition", "setting": "[3]", "value": 8.66, "unit": "%"}, {"measurement": "IC50", "setting": "[4]", "value": 20, "unit": "µM"}, {"measurement": "IC50", "setting": "Vasopressin V1a receptor", "value": "> 50.1", "unit": "µM"}, {"measurement": "EC50", "setting": "[5]", "value": "> 100", "unit": "µM"}, {"measurement": "EC50", "setting": "[6]", "value": "> 100", "unit": "µM"}, {"measurement": "IC50", "setting": "[6]", "value": "> 100", "unit": "µM"}, {"measurement": "EC50", "setting": "[7]", "value": "> 50.1", "unit": "µM"}, {"measurement": "IC50", "setting": "[7]", "value": 10, "unit": "µM"}, {"measurement": "IC50", "setting": "[8]", "value": "> 50.1", "unit": "µM"}, {"measurement": "IC50", "setting": "[9]", "value": 39.8, "unit": "µM"}, {"measurement": "IC50", "setting": "[10]", "value": 79.4, "unit": "µM"}, {"measurement": "IC50", "setting": "Substance-P receptor", "value": "> 25.1", "unit": "µM"}, {"measurement": "IC50", "setting": "[11]", "value": "> 100", "unit": "µM"}, {"measurement": "IC50", "setting": "[12]", "value": "> 25.1", "unit": "µM"}, {"measurement": "IC50", "setting": "[13]", "value": "> 100", "unit": "µM"}, {"measurement": "EC50", "setting": "[14]", "value": "> 50.1", "unit": "µM"}, {"measurement": "IC50", "setting": "[14]", "value": "> 50.1", "unit": "µM"}, {"measurement": "IC50", "setting": "[15]", "value": 39.8, "unit": "µM"}, {"measurement": "EC50", "setting": "[16]", "value": "> 100", "unit": "µM"}, {"measurement": "IC50", "setting": "[16]", "value": "> 100", "unit": "µM"}, {"measurement": "EC50", "setting": "[17]", "value": "> 50.1", "unit": "µM"}, {"measurement": "IC50", "setting": "[18]", "value": "> 100", "unit": "µM"}, {"measurement": "IC50", "setting": "[19]", "value": 39.8, "unit": "µM"}, {"measurement": "EC50", "setting": "[20]", "value": "> 100", "unit": "µM"}, {"measurement": "IC50", "setting": "[20]", "value": "> 100", "unit": "µM"}, {"measurement": "IC50", "setting": "[21]", "value": "> 31.6", "unit": "µM"}, {"measurement": "IC50", "setting": "[22]", "value": "> 31.6", "unit": "µM"}, {"measurement": "pIC50", "setting": "[23]", "value": 7.4}, {"measurement": "inhibition", "setting": "[24]", "value": 91.6, "unit": "%"}, {"measurement": "Kd", "setting": "[25]", "value": 30, "unit": "µM"}, {"measurement": "Kd", "setting": "[26]", "value": 30, "unit": "µM"}, {"measurement": "Kd", "setting": "[27]", "value": "0.005 µM (active)"}, {"measurement": "inhibition", "setting": "D(2) dopamine receptor", "value": 27.7, "unit": "%"}, {"measurement": "Kd", "setting": "[28]", "value": 30, "unit": "µM"}, {"measurement": "Kd", "setting": "[29]", "value": 25, "unit": "µM"}, {"measurement": "Kd", "setting": "[30]", "value": 0.005, "unit": "µM"}, {"measurement": "Kd", "setting": "[31]", "value": 0.013, "unit": "µM"}, {"measurement": "inhibition", "setting": "[32]", "value": 9.95, "unit": "%"}, {"measurement": "Kd", "setting": "[33]", "value": 30, "unit": "µM"}, {"measurement": "inhibition", "setting": "[34]", "value": 15.3, "unit": "%"}, {"measurement": "Kd", "setting": "[35]", "value": 30, "unit": "µM"}, {"measurement": "inhibition", "setting": "[36]", "value": 12.3, "unit": "%"}, {"measurement": "Kd", "setting": "[37]", "value": 30, "unit": "µM"}, {"measurement": "inhibition", "setting": "[38]", "value": 79.5, "unit": "%"}, {"measurement": "pMEC", "setting": "[39]", "value": "< 4"}, {"measurement": "inhibition", "setting": "[40]", "value": 31.7, "unit": "%"}, {"measurement": "Kd", "setting": "CREB-binding protein", "value": 3.8, "unit": "µM"}, {"measurement": "Ki", "setting": "D(4) dopamine receptor; read-out: Ki", "value": 0.857, "unit": "µM"}, {"measurement": "Ki", "setting": "D(4) dopamine receptor; read-out: pKi (converted)", "value": 0.813, "unit": "µM"}, {"measurement": "Ki", "setting": "[41]", "value": 4.46, "unit": "µM"}]}
